Values quoted from earlier work in patent US20100040600A1, “Agents for Promoting the Growth of Hematopoietic Stem Cells” (CHUGAI SEIYAKU KABUSHIKI KAISHA, priority 2006, published 2010).
Numbered stars: 1 amine (or outer) side, 2 acyl side, 3 side chain; on linkers, the order of the positions; unused ones are H or OH. Bridge positions count the residues as written; N and C are the ends. Square brackets hold non-standard residues; d marks the D form. Peptide text beside a SMILES is read from it. I, II: the chains in the order shown. 2Nal = N[CH](Cc1ccc2ccccc2c1)C(=O)O; X1 = NC(N)NCCCC(N[*:1])C(=O)[*:2]; NMeI = CC[CH](C)[CH](NC)C(=O)O; Sar = CNCC(=O)O

Key:
[1] = cited from earlier work
[2] = tested on: Hu BM CD34; details: in vitro activity; read-out: Hu BM CD34 differentiation assay: EC50; cited from earlier work
[3] = tested on: c-mpl; details: cited from earlier work
[4] = tested on: c-mpl; details: cited from earlier work; remark: listed apart in the source
[5] = target: T1, c-mpl (Mus musculus, UniProt Q08351); details: cited from earlier work
T1 sequence (Q08351 26-625): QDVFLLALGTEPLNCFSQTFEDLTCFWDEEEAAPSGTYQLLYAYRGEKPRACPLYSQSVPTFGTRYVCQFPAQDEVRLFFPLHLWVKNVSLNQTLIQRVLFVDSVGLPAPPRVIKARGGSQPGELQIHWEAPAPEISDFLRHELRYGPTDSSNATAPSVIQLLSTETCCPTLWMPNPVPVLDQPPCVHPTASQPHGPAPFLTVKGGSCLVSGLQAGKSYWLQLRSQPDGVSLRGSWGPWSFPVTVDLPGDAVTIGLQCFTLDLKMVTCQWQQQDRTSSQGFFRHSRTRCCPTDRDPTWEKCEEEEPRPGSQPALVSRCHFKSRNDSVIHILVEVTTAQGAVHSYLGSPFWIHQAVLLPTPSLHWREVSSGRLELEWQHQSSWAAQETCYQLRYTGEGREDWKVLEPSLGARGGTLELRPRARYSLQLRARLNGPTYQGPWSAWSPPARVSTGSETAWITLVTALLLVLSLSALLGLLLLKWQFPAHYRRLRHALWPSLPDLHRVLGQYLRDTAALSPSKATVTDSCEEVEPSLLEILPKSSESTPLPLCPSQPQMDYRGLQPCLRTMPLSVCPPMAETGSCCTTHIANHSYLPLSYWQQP

[6] = target: T2, hu c-mpl transmembrane domain (Homo sapiens, UniProt P40238); details: cited from earlier work
T2 sequence (P40238 26-635): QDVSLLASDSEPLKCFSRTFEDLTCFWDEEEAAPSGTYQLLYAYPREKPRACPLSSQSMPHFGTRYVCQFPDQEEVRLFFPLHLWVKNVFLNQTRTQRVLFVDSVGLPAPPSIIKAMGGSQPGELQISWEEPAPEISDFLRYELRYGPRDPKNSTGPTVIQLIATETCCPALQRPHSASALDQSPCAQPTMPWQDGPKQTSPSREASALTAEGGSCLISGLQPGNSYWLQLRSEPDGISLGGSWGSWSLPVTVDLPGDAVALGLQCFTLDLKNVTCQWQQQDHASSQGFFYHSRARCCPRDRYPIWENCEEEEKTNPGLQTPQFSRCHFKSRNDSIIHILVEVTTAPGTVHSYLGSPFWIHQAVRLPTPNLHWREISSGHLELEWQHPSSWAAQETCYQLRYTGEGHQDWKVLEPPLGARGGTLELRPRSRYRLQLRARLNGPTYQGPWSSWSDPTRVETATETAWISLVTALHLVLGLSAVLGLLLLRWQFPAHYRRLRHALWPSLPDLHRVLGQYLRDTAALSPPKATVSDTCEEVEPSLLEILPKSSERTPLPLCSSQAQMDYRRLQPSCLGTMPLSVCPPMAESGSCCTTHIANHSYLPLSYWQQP

[7] = target: T3, c-mpl (Homo sapiens, UniProt P40238); details: cited from earlier work
T3 sequence (P40238 26-635): T2 sequence (P40238 26-635)

[8] = tested on: c-mpl; details: cited from earlier work; remark: listed apart in the source
[9] = tested on: dog receptors; details: cited from earlier work
[10] = target: T4, mouse receptors (Mus musculus, UniProt Q08351); details: cited from earlier work
T4 sequence (Q08351 26-625): T1 sequence (Q08351 26-625)

[11] = tested on: rat receptors; details: cited from earlier work

Row | Compound | T1/2 [1] | EC50 [2] | cross-reactivity: chimpanzee [3] | cross-reactivity: cynomolgus macaques [4] | cross-reactivity: mouse [5] | Binding site [6] | species specificity [7] | cross-reactivity: cat [8] | cross-reactivity to dog receptors [9] | cross-reactivity to mouse receptors [10] | cross-reactivity to rat receptors [11]
1 | CC1=NN(c2ccc(C)c(C)c2)C(=O)/C1=N\Nc1cccc(-c2cccc(C(=O)O)c2)c1O [SB297115/Eltrombopag] | T1/2 = 12 hr | ~100 nM | Cross-reactivity: chimpanzee | No cross-reactivity: cynomolgus macaques, cat, mouse, etc. | No cross-reactivity: cynomolgus macaques, cat, mouse, etc. | Binding site: a hu c-mpl transmembrane domain (His499, Thr496) | High species specificity | No cross-reactivity: cynomolgus macaques, cat, mouse, etc. |  |  | 
2 | CCC(C)C(N)C(=O)NC(CCC(=O)O)C(=O)NCC(=O)N1CCCC1C(=O)NC(C(=O)NC(CC(C)C)C(=O)NC(CCCNC(=N)N)C(=O)NC(CCC(N)=O)C(=O)NC(Cc1ccc2ccccc2c1)C(=O)NC(CC(C)C)C(=O)NC(C)C(=O)NC(C)C(=O)NC(CCCNC(=N)N)C(=O)N(C)CC(=O)NC(CCCCNC(=O)CN(C)C(=O)C(CCCNC(N)N)NC(=O)C(C)NC(=O)C(C)NC(=O)C(CC(C)C)NC(=O)C(Cc1ccc2ccccc2c1)NC(=O)C(CCC(N)=O)NC(=O)C(CCCNC(=N)N)NC(=O)C(CC(C)C)NC(=O)C(NC(=O)C1CCCN1C(=O)CNC(=O)C(CCC(=O)O)NC(=O)C(NC)C(C)CC)C(C)O)C(N)=O)C(C)O (centres unmarked) [peg-TPOmp] (I: H-IEGPTLRQ[2Nal]LAAR[Sar]K-NH2 / II: H-[NMeI]EGPTLRQ[2Nal]LAA[X1][Sar]; amide I:15-II:C; configuration not given here) |  |  |  |  |  |  |  |  | Cross-reactive to mouse, rat, and dog receptors | Cross-reactive to mouse, rat, and dog receptors | Cross-reactive to mouse, rat, and dog receptors
